Reference: PubChem BioAssay (NCI)
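96-well plates; 48 h exposure; 5 concentrations. Endpoints by linear interpolation between flanking doses. Not reached: highest tested concentration assigned. At the TGI there is no net growth.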

Legend:
Assay in all cases: growth of human tumour cells (NCI), 48 h
HOP-92 NSCLC = tested on: HOP-92 NSCLC
HT29 colon = tested on: HT29 colon
HCT-15 colon = tested on: HCT-15 colon
BT-549 breast = tested on: BT-549 breast
DU-145 prostate = tested on: DU-145 prostate
ACHN renal = tested on: ACHN renal
M14 melanoma = tested on: M14 melanoma
SN12C renal = tested on: SN12C renal
MCF7 breast = tested on: MCF7 breast
HCC-2998 colon = tested on: HCC-2998 colon
RPMI-8226 leukemia = tested on: RPMI-8226 leukemia
NCI/ADR-RES ovarian = tested on: NCI/ADR-RES ovarian
COLO 205 colon = tested on: COLO 205 colon
SF-268 CNS = tested on: SF-268 CNS
UACC-62 melanoma = tested on: UACC-62 melanoma
786-0 renal = tested on: 786-0 renal
PC-3 prostate = tested on: PC-3 prostate
OVCAR-3 ovarian = tested on: OVCAR-3 ovarian
NCI-H460 lung = tested on: NCI-H460 lung

Row | Structure (SMILES) | TGI (HOP-92 NSCLC) | TGI (HT29 colon) | TGI (HCT-15 colon) | TGI (BT-549 breast) | TGI (DU-145 prostate) | TGI (ACHN renal) | TGI (M14 melanoma) | TGI (SN12C renal) | TGI (MCF7 breast) | TGI (HCC-2998 colon) | TGI (RPMI-8226 leukemia) | TGI (NCI/ADR-RES ovarian) | TGI (COLO 205 colon) | TGI (SF-268 CNS) | TGI (UACC-62 melanoma) | TGI (786-0 renal) | TGI (PC-3 prostate) | TGI (OVCAR-3 ovarian) | TGI (NCI-H460 lung)
1 | Nc1cc2c3c(cccc3c1)C(=O)N(c1ccc(OCCN3CCCCC3)cc1)C2=O | 34.2 µM | 31.9 µM | 25.4 µM | 38.4 µM | 33.5 µM | 29.4 µM | 32.3 µM | > 54.3 µM | 36.3 µM | 34 µM | 41.7 µM | 40.9 µM | 35.7 µM | 37.7 µM | 36.6 µM | 43.3 µM | 32.9 µM | 30.7 µM | 
2 | CCCCCC(O)[C@H]1C(=O)C[C@@H](O[Si](C)(C)C(C)(C)C)[C@@H]1/C=C/CCOCc1ccccc1 (stereo partly drawn) | 28.1 µM | 22.5 µM | 27.4 µM | 21.3 µM | 46.4 µM | 26.2 µM | 34.5 µM | 38.4 µM | > 54.7 µM | 30.9 µM | > 44.8 µM | 29.3 µM | 41.5 µM | 33.2 µM | 25.1 µM | 26.1 µM | 30.9 µM | 28.1 µM | 30.5 µM
3 | Cc1cccc(N=Nc2c(C)nn(C(=O)CC(=O)Nc3ccccc3)c2C)c1 | > 100 µM | > 100 µM | > 100 µM | > 100 µM | > 100 µM | > 100 µM | > 100 µM | > 100 µM | > 100 µM | > 100 µM | > 100 µM | > 100 µM | > 100 µM | > 100 µM | > 100 µM | > 100 µM | > 100 µM | > 100 µM | > 100 µM
4 | CCOC(=O)c1sc2nc(SC)nc3c2c1N=CN3c1ccccc1Cl | 74.5 µM | > 100 µM | > 100 µM | > 100 µM | > 100 µM | 55.3 µM | > 100 µM | > 100 µM | > 100 µM | > 100 µM | > 100 µM | > 100 µM | > 100 µM | > 100 µM | > 100 µM | 33.6 µM | > 100 µM | > 100 µM | > 100 µM
5 | CC1(C)C=C(/C=N/Nc2ccc([N+](=O)[O-])cc2)C(C#N)=C(O)C1(C#N)C#N | > 100 µM | > 100 µM | > 100 µM | > 100 µM | > 100 µM | > 100 µM | > 100 µM | > 100 µM | > 100 µM | > 100 µM | > 100 µM | > 100 µM | > 100 µM | > 100 µM | > 100 µM | > 100 µM | > 100 µM | > 100 µM | > 100 µM
6 | Cc1cn(C2CC(O)C(Cn3cc(Cn4ncc(=O)[nH]c4=O)nn3)O2)c(=O)[nH]c1=O (stereo not drawn) | > 100 µM | > 100 µM | > 100 µM | > 100 µM | > 100 µM | > 100 µM | > 100 µM | > 100 µM | > 100 µM | > 100 µM | > 100 µM | > 100 µM | > 100 µM | > 100 µM | > 100 µM | > 100 µM | > 100 µM | > 100 µM | 
7 | Cc1cc2c(cc1Cl)SC(N/N=C(\N)c1ccc(Cl)cc1)=NS2(=O)=O | 58.9 µM | > 100 µM | > 100 µM | > 100 µM | > 100 µM | > 100 µM | > 100 µM | > 100 µM | 64.7 µM | > 100 µM |  | > 100 µM | > 100 µM | > 100 µM | > 100 µM | > 100 µM | > 100 µM | > 100 µM | > 100 µM
8 | O=C1CC(CC(O)C(O)C(O)CO)CC(=O)N1 (stereo not drawn) | > 100 µM | > 100 µM | > 100 µM | > 100 µM | > 100 µM | > 100 µM | > 100 µM | > 100 µM | > 100 µM | > 100 µM | > 100 µM | > 100 µM | > 100 µM | > 100 µM |  | > 100 µM | > 100 µM | > 100 µM | > 100 µM
9 | Cc1ccc2c(=O)cc(-c3cccc4ccccc34)[nH]c2n1 | 32 µM | 0.0658 µM | 1.73 µM | > 94.6 µM | > 74.7 µM | > 100 µM | > 100 µM | > 100 µM | > 43.1 µM | 0.177 µM |  | > 100 µM | 0.676 µM | > 32.4 µM | > 100 µM | > 79.2 µM | > 43 µM |  | > 100 µM
10 | CC(NC(=O)C(N)Cc1ccc(O)cn1)C(=O)O (stereo not drawn) | > 100 µM | > 100 µM | > 100 µM | > 100 µM | > 100 µM | > 100 µM |  | > 100 µM | > 100 µM | > 100 µM | > 100 µM | > 100 µM | > 100 µM | > 100 µM |  | > 100 µM | > 100 µM | > 100 µM | > 100 µM
11 | O=C1C2=Cc3ccccc3OC2(O)Oc2cc(O)ccc21 (stereo not drawn) | > 100 µM | > 100 µM | > 100 µM | > 100 µM | > 100 µM | > 100 µM | > 100 µM | > 100 µM | > 100 µM | > 100 µM | > 100 µM | > 100 µM | > 100 µM | > 100 µM | > 100 µM | > 100 µM | > 100 µM | > 100 µM | 
12 | COc1[nH]c(C(Cl)(Cl)Cl)c(Cl)c(=O)c1Cl | > 100 µM | > 100 µM | > 100 µM | > 100 µM | > 100 µM | > 100 µM |  | > 100 µM | > 100 µM | > 100 µM | > 100 µM | > 100 µM | > 100 µM |  | > 100 µM | > 100 µM | > 100 µM | > 100 µM | > 100 µM
13 | CC(=O)OCC1OC(n2c(C)c(N=Nc3ccccc3)c(C)c(C#N)c2=S)C(OC(C)=O)C(OC(C)=O)C1OC(C)=O (stereo not drawn) | 28 µM | > 100 µM |  | > 100 µM | > 100 µM | > 100 µM | > 100 µM | > 100 µM | > 100 µM | > 100 µM | > 100 µM | > 100 µM | > 100 µM | > 100 µM | 33.3 µM | 22.7 µM | > 100 µM | > 100 µM | > 100 µM
14 | O=C(Cn1cc(-c2ccccc2)nn1)NC1CCCC1 | > 100 µM | > 100 µM | > 100 µM | > 100 µM | > 100 µM | > 100 µM | > 100 µM | > 100 µM | > 100 µM | > 100 µM | > 100 µM | > 100 µM | > 100 µM | > 100 µM |  | > 100 µM | > 100 µM |  | > 100 µM
15 | O=S(=O)(N=S(c1ccc(Cl)cc1)c1ccc(Cl)cc1)c1ccccc1 | > 100 µM | > 100 µM | > 100 µM | > 100 µM | > 100 µM | > 100 µM | > 100 µM | > 100 µM | > 100 µM | > 100 µM | > 100 µM | > 100 µM | > 100 µM | > 100 µM | > 100 µM | > 100 µM | > 100 µM |  | > 100 µM
16 | CCCCCCCCCCCCn1c(=O)cc(NCCCC)c2cc3c(NCCCC)cc(=O)n(CCCCCCCCCCCC)c3nc21 | > 100 µM |  | > 100 µM | > 100 µM | > 100 µM | > 100 µM | > 100 µM | > 100 µM | > 100 µM | > 100 µM | > 100 µM | > 100 µM | > 100 µM | > 100 µM | > 100 µM | > 100 µM | > 100 µM | > 100 µM | > 100 µM
17 | COC(=O)c1ccc(N=NN(C)COc2ccc(C#N)cc2)cc1 | > 100 µM | > 100 µM | > 100 µM | > 100 µM | > 100 µM | > 100 µM | > 100 µM | > 100 µM | > 100 µM | > 100 µM | > 100 µM | > 100 µM | > 100 µM | > 100 µM |  | > 100 µM | > 100 µM | > 100 µM | > 100 µM
18 | COc1ccc(CNc2nc3cc(C(F)(F)F)ccc3nc2C(=O)O)cc1OC | > 100 µM | > 100 µM | > 100 µM | > 100 µM | > 100 µM | > 100 µM | > 100 µM | 77.9 µM | 95 µM | 95.8 µM | 94.6 µM | > 100 µM | 57.7 µM |  | 45.6 µM | > 100 µM | > 100 µM | 58.1 µM | > 100 µM
19 | Cc1ccc(S(=O)(=O)OC2=C/C(=N\c3onc(C)c3C)c3ccccc3C2=O)cc1 | 33.2 µM | > 100 µM | > 100 µM | 71.9 µM | > 100 µM | > 100 µM | > 100 µM | 37.4 µM | 33.5 µM |  | 53.8 µM | 77.1 µM | > 100 µM | 77.5 µM | 57.7 µM | > 100 µM | 40.1 µM | 30.1 µM | > 100 µM
20 | OC(c1cccnc1)C(F)(F)c1nc2ccccc2o1 (stereo not drawn) | > 100 µM | > 100 µM | > 100 µM | > 100 µM | > 100 µM | > 100 µM |  |  | > 100 µM | > 100 µM | > 100 µM | > 100 µM | > 100 µM | > 100 µM | > 100 µM | > 100 µM | > 100 µM |  | > 100 µM
